Reference: patent US9439882B2, “Compounds and compositions for the treatment of cancer” (PROMETIC BIOSCIENCES, INC., priority 2010, dated 2016)

Key:
[1] = tested on: human prostate PC-3 tumor; assay: Xenograft human prostate PC-3 tumor in mice; format: in vivo; conditions: cyclophosphamide alone; p≦0.05; FIG. 15
Description: The xenogenic human prostate tumor PC-3 was obtained from ATCC (CRL1435). PC-3 cells were grown in RPMI-1640 containing 10% fetal bovine serum. At day 0, 50 μL of viable PC-3 (1.5 to 2×10^6) cells were subcutaneously injected to produce localized tumors in 6- to 8-week old male CD1 nu/nu mice. The animals were then serially monitored by manual palpation for evidence of tumor. […] Mice were sacrificed at day 56. Serial tumor volume was obtained by bi-dimensional diameter measurements with calipers, using the formula 0.4 (a×b^2) where “a” was the major tumor diameter and “b” the minor perpendicular diameter.

LL/2 lung tumor = LL/2 lung tumor in mice; format: in vivo; conditions: sodium decanoate oral 200 mg/kg daily; gemcitabine i.p. 50 mg/kg day 1, 8, 15, 22; FIG. 11
From the text: The syngeneic tumor LL/2 is a lung tumor cell line obtained from ATCC (CRL-1642). […] Mice were sacrificed at day 26. […] Tumors were palpable, in general, 3-5 days post-inoculation.

[2] = tested on: Panc02 pancreatic adenocarcinoma; assay: Orthotopic Panc02 pancreatic cancer model, survival; format: in vivo; conditions: C57BL/6 mice; gemcitabine i.p. 50 mg/kg once a week, Compound XV oral 200 mg/kg daily; control 50 days; FIG. 4
Description: Syngeneic Panc02 is a pancreatic adenocarcinoma tumor cell line obtained from NCI (0507232). Panc02 cells are positive for Ki-Ras, p53, HerNEU and CDK. Panc02 were grown in RPMI-1640 containing 10% fetal bovine serum. At day 0, 50 μL of 5×10^5 viable Panc02 cells were injected into the tail of the pancreas in 6- to 8-week old C57BL/6 mice. Mice were then treated every day with oral administration of vehicle (saline, negative control), or Compound XV and with intraperitoneal injection of gemcitabine (50 mg/kg) once a week starting at day 8.

CTGF production [3] = assay: Inhibition of TGF-induced CTGF production in NHDF (ELISA); format: cell-based; conditions: Homo sapiens, 10 ng/mL TGF-β, 48 h
Description: (§1) The effect of selected compounds on CTGF production was undertaken in normal human dermal fibroblast (NHDF) or human mesangial cells. Cells were cultured in DMEM (0.5% FBS) with or without 10 ng/mL of TGF-β for 48 h in a humidified atmosphere of 95% air-5% carbon dioxide at 37° C. CTGF measurement in the culture medium was measured using the CTGF ELISA according to the manufacturer (Prepotech) recommendations.

IL-12 production = IL-12 production in LPS-stimulated RAW264.7 cells (ELISA); format: cell-based; conditions: compound 0.5 mM; 100 ng/mL LPS, 21 h
Description: The effect of selected compounds on IL-12 production was undertaken in RAW264.7 (macrophage-like) cells. RAW264.7 cells were cultured with 100 ng/mL of LPS in presence or absence of compounds for 21 h in a humidified atmosphere of 95% air-5% carbon dioxide at 37° C. IL-12 concentration in the culture medium was measured using the IL-12 ELISA according to the manufacturer (BD Biosciences) recommendations. […] Compounds have no effect on IL-12 production in the absence of LPS.

B16F10 melanoma cells = assay: Primary B16F10 melanoma tumor in mice; format: in vivo; conditions: C57BL/6 mice; sodium decanoate 100 mg/kg oral daily, doxorubicin 5 mg/kg (subtherapeutic dose); FIG. 3
Description: Female 6-8 week old C57BL/6 mice were injected subcutaneously on day 0 with 50 μL of 3.75×10^4 viable B16F10 melanoma cells from ATCC (source of cell culture, Dr. I. J. Fidler). On day 14, tumors reached […] and animals were randomized for treatment. […] Mice were sacrificed on day 12.

P815 liver metastasis = P815 liver metastasis in mice; format: in vivo; conditions: oral 200 mg/kg; p<0.05; FIG. 9 and 10
Description: The syngeneic tumor P815 is a DBA/2 (H-2^d)-derived mastocytoma obtained from ATCC (TIB64). P815 cells were grown in DMEM containing 10% fetal bovine serum. At day 0, 50 μL of 5×10^5 viable P815 cells were subcutaneously injected to produce localized tumors in 6- to 8-week old DBA/2 mice. The animals were then serially monitored by manual palpation for evidence of tumor. […] Mice were sacrificed around day 23 (depending on the experiment). Serial tumor volume was obtained by bi-dimensional diameter measurements with calipers, using the formula 0.4 (a×b^2) where “a” was the major tumor diameter and “b” the minor perpendicular diameter. Tumors were palpable, in general, 3-5 days post-inoculation.
It is known that P815 cells have the capacity to metastasize to the liver.

Panc02 pancreatic cancer = assay: Subcutaneous Panc02 pancreatic tumor growth; format: in vivo, mice; conditions: from day 34-39; oral; p<0.05; FIG. 16
P815 mastocytoma = assay: Primary P815 mastocytoma tumor growth in mice; format: in vivo
From the text: The syngeneic tumor P815 is a DBA/2 (H-2^d)-derived mastocytoma obtained from ATCC (TIB64). […] Mice were sacrificed around day 23 (depending on the experiment). […] Tumors were palpable, in general, 3-5 days post-inoculation.

CT-26WT colon tumor = assay: Primary colon CT-26WT tumor in mice; format: in vivo; conditions: sodium decanoate oral 200 mg/kg daily; 5-fluorouracil i.p. 40 mg/kg day 6, 13, 20; Compound XV oral; FIG. 12 and 13
Description: The syngeneic tumor CT-26WT (CT-26) is a colon tumor cell line obtained from ATCC (CRL-2638). CT-26 cells were grown in RPMI containing 10% fetal bovine serum. At day 0, 50 μL of 5×10^6 viable CT-26 cells were subcutaneously injected to produce localized tumors in 6- to 8-week old mice. The animals were then serially monitored by manual palpation for evidence of tumor. […] Mice were sacrificed at day 25. Serial tumor volume was obtained by bi-dimensional diameter measurements with calipers, using the formula 0.4 (a×b^2) where “a” was the major tumor diameter and “b” the minor perpendicular diameter. Tumors were palpable, in general, 3-5 days post-inoculation.

HK-2 cells = assay: TGF-β induced epithelial to mesenchymal transition in HK-2 cells (real-time PCR of E-cadherin, CTGF, collagen 1); format: cell-based, human; conditions: sodium decanoate and Compound I at 0.5 mM; for TGF-β induced EMT: HK-2 cells; for CTGF transcript expression / collagen 1 transcript expression: TGF-β-stimulated cells, 24 h, normalized to GAPDH; for basal expression of CTGF / basal expression of collagen 1: compound alone, no TGF-β
Description: (§2) FIG. 20 is a bar graph showing the effect of Compound XVII on E-cadherin in normal HK-2 cells and in TGF-β induced EMT cells. Real-time PCR using human E-cadherin TaqMan® Gene Expression Assay normalized to human GAPDH endogenous control; reference is TGF-δ-treated cells 24 h (RQ=1). *means p<0.05, and ** means p<0.01 (t-test).
as §2, with “FIG. 21” for “FIG. 20”, “on CTGF” for “on E-cadherin”, “human CTGH” for “human E-cadherin”, “is TGF-β-treated” for “is TGF-δ-treated”
FIG. 22 is a bar graph showing the effect of Compound XVII on collagen 1 in normal HK-2 cells and in TGF-β induced EMT cells. Real-time PCR using human Collagen 1 TaqMan® Gene Expression Assay normalized to human GAPDH endogenous control; reference is TGF-β-treated cells 24 h (RQ=1). ** means p<0.01 (t-test).
Real-time PCR using human CTGF TaqMan® Gene Expression Assay and Collagen 1 TaqMan® Gene Expression Assay normalized to human GAPDH endogenous control; reference is TGF-β-treated cells 24 h (RQ=1).
FIG. 24 is a bar graph showing the effect of Compound I on CTGF and collagen 1 expression in normal HK-2 cells and in TGF-β induced EMT cells. Real-time PCR using human CTGF TaqMan® Gene Expression Assay and Collagen 1α1 TaqMan® Gene Expression Assay normalized to human GAPDH endogenous control; reference is TGF-β-treated cells 24 h (RQ=1). Compound I is added at 0.5 mM.
Further analysis was undertaken to determine the effect of Compoounds on EMT. The effect of Compound XVII on TGF-β induced EMT was analyzed on human epithelial […] cells (HK-2). To assess the progression of EMT, the pro-epithelial marker E-cadherin and the mesenchymal/pro-fibrotic markers CTGF and collagen 1 were assayed by quantitative real-time PCR. To determine the efficacy of Compound XVII in inhibiting TGF-β-induced EMT, verification of the ability of TGF-β to induce EMT in HK-2 cells.

CTGF production [4] = assay: Inhibition of TGF-induced CTGF production in human mesangial cells (ELISA); format: cell-based; conditions: FIG. 2
Description: as §1

Compound | tumor growth T/C [1] | efficacy on primary tumor LL/2 (single agent) (LL/2 lung tumor) | median survival [2] | inhibition at 500 µM (CTGF production [3]; 500 μM) | IL-12 (IL-12 production) | reduction of primary tumor volume compared to the control (B16F10 melanoma cells) | reduction of mice with liver metastasis (P815 liver metastasis) | tumor growth Treated/Control (T/C) (Panc02 pancreatic cancer) | P815 tumor growth (P815 mastocytoma; DBA/2 mice, oral 40-200 mg/kg every day, FIG. 6) | P815 tumor growth (P815 mastocytoma; oral 200 mg/kg, FIG. 7 and 8) | efficacy on primary tumor CT-26 (single agent) (CT-26WT colon tumor) | TGF-β induced EMT (HK-2 cells) | CTGF transcript expression (HK-2 cells) | collagen 1 transcript expression (HK-2 cells) | basal expression of CTGF (HK-2 cells) | basal expression of collagen 1 (HK-2 cells) | inhibition at 200 µM (CTGF production [3]; 200 μM) | inhibition of TGF-induced CTGF production (CTGF production [4])
O=P1(N(CCCl)CCCl)NCCCO1 (centres unmarked) [Cyclophosphamide, cyclophosphamide] | 42-78% |  |  |  |  |  |  |  |  |  |  |  |  |  |  |  |  | 
Nc1ccn([C@@H]2O[C@H](CO)[C@@H](O)C2(F)F)c(=O)n1 [gemcitabine, reference compound] |  | weak efficacy | 68.5 days |  |  |  |  |  |  |  |  |  |  |  |  |  |  | 
CCCCCCCCCC(=O)[O-].[Na+] [Sodium decanoate] |  | weak efficacy |  | 51% | 50 pg/mL | around 25% | 50% | 60-70% | significant reduction (p<0.05) | significant reduction (p<0.05) | weak efficacy | significant inhibition | reduction | reduction | reduction | reduction |  | 
CCCCCc1cccc(CC(=O)[O-])c1.[Na+] [Compound I, Sodium Salt of (3-pentylphenyl)Acetic Acid] |  |  |  |  | 54 pg/mL |  |  |  |  | significant reduction (p<0.05) |  | significant inhibition | reduction | reduction | reduction | reduction | 54% | significant (p<0.05) inhibition
